According to patent US5840859A, “(Aminostyryl)pyridinium compounds for radiolabelling cell membranes” (Research Corporation Technologies, Inc., priority 1996, dated 1998):

Experiments:
mixed leukocytes = assay: Mixed leukocyte labeling yield; format: cell-based, canine; details: for Mixed leukocyte labeling yield: 125I labeled, average, 10-30 μCi, 250-325 Ci/mmol
Description: Labeling of mixed leukocytes (harvested from 20 mL canine blood) with 4a-d was performed using five different procedures: 1) labeling in Diluent C (a commercial non-ionic cell labeling media developed by Zynaxis Co. that is not approved for human use) after two saline washes of the cell pellet; 2) labeling in saline after two saline washes of the cell pellet; 3) labeling in saline with no saline washes of the cell pellet; 4 and 5) labeling in ether 10% or 100% platelet poor plasma (PPP).
Unwashed mixed leukocytes in 1.5 mL 10% PPP in saline were also tested. […]
This was evaporated to dryness under vacuum in a speed vac and reconstituted into 30 ul ethanol. Forty milliliters of canine blood was drawn into a 60 mL syringe containing 6.5 mL acetate-citrate-dextrose solution. To this was added 5.5 mL 2% methyl cellulose in saline. The contents of the syringe were gently mixed by several inversions of the syringe and the syringe placed vertically, needle end up, for 45 minutes to allow the red blood cells to settle. The plasma was drawn off and placed into a 50 mL Falcon tube. The tube was centrifuged at 1100 rpm for 15 minutes to pellet the leukocytes. The plasma was removed and the cells resuspended in 2 mL saline. In a 1 mL plastic microcentrifuge was placed 0.5 mL saline. […] The cells were then underlayered with 7.5 mL of platelet poor plasma and centrifuged at 1600 rpm for seven minutes to pellet the cells. The supernatant was removed, the cells resuspended in 10 mL saline, and transferred to a new tube. The supernatant, cells, and labeling tube were counted for radioactivity. The cells were centrifuged again at 1600 rpm for 7 minutes, the supernatant removed, and the cells resuspended.
A sample of canine blood (20 mL) was drawn into a 60 mL syringe containing 3 mL acetate-citrate-dextrose (ACD) solution. To this was added 3 mL 2% methyl cellulose in saline. The contents of the syringe were gently mixed by several inversions, and the syringe was then placed vertically, needle end up, for 45 min to allow the red blood cells to settle. The plasma was drawn off and transferred to a 50 mL Falcon tube. The tube was centrifuged at 1100 rpm for 15 min to pellet the leukocytes. The plasma was removed and the cells resuspended in 10 mL saline. The tube was centrifuged at 1600 rpm for 7 min, the supernatant removed, and the cells resuspended in 10 mL saline and recentrifuged at 1600 rpm for 7 min. The supernatant was then removed and the cells resuspended in 2 mL Diluent C. Into a 1 mL plastic microcentrifuge tube was placed 0.5 mL Diluent C. […] The indium complex in Diluent C was immediately added to the leukocytes and the cells were placed vertically on a Nutator rocking apparatus and rocked gently for 30 min at room temperature. The cells were then underlayered with 5 mL of platelet poor plasma and centrifuged at 1600 rpm for 7 min to pellet the cells. The supernatant was removed, the cells resuspended in 10 mL saline, and transferred to a new tube. The supernatant, cells, and labeling tube were counted for radioactivity. The cells were centrifuged again at 1600 rpm for 7 min, the supernatant removed, and the cells resuspended.

mononuclear leukocytes = assay: Mononuclear leukocyte labeling yield; format: cell-based; details: harvested from 20 mL canine blood via isolymph method
Description: Using ^125 I-4b and ^131 I-4b, mononuclear leukocytes harvested from 20 mL canine blood via the isolymph method (sodium diatrizoste and Ficol 400, d=1.077) were labeled in 77% and 85% yields, respectively. Thus, the present compounds can label both lymphocytes and mixed leukocytes in high yields, and that the latter can be used to image sites of focal inflammation.

[1] = test system: sodium urate induced abscess in the stifle joint; assay: Localization of labeled leukocytes in dogs having a sodium urate induced abscess in the stifle joint (aspirate, gamma camera images)
Description: Mixed leukocytes labeled with 4b and ^111 In-oxine labeled mixed leukocytes were compared in dogs having a sodium urate-induced inflammation in the left stifle joint. […]

[2] = test system: inflammatory lesions / abscesses; details: cited from earlier work
[3] = Table 3 Experiment 3, 4b 500 Ci/mmol, Diluent C after 2 × 10 mL saline washes
[4] = Table 3 Experiment 4, 4b 1000 Ci/mmol, Diluent C after 2 × 10 mL saline washes
[5] = Table 3 Experiment 5, 4b 800 Ci/mmol, saline after 2 × 10 mL saline washes
[6] = Table 3 Experiment 6, 4b 800 Ci/mmol, saline after 2 × 10 mL saline washes
[7] = 48 hour, estimated from region of interest (ROI) measurements
[8] = Experiment 3, injected 88 μCi 131I-4b, 331 μCi 111In-oxine, Diluent C
[9] = Experiment 4, injected 255 μCi 131I-4b, 288 μCi 111In-oxine, Diluent C
[10] = Experiment 5, injected 272 μCi 131I-4b, 326 μCi 111In-oxine, saline
[11] = Experiment 6, injected 211 μCi 131I-4b, 378 μCi 111In-oxine, saline
[12] = labeled leukocytes, McAfee et al.

indium-111 complex of N-[methyl(2-(Di-10-ASP-propylthiourea)ethyl)carbamide]-trans-1,2-diaminocyclohexane-N,N',N'-triacetic acid [^111 In-19b]
Mixed leukocyte labeling yield, 111In complexes (mixed leukocytes; Diluent C): 84%
111In bound to the cells (labeling yield) (mixed leukocytes; Example 15, Diluent C, 44.4 μCi, 30 min, room temperature): 84%
111In bound to the cells (mixed leukocytes; Example 15, of 44.4 μCi added): 37.4 μCi

CCCCCCN(CCCCCC)c1ccc(/C=C/c2cc[n+](C/C=C/[131I])cc2)cc1 [^131 I-4b, 3-[4-[2-(N,N-dihexylamino)phenyl]ethyenyl]pyridino-E-1-[^131 I]-iodo-propene]
131I bound to the cells (mixed leukocytes; Example 10, of 372 uCi added, saline, 20 min): 340 uCi
131I bound to the cells (labeling yield) (mixed leukocytes; Example 10, saline, 372 uCi, 20 min, room temperature, after second centrifugation): 91%
Labeling Yield (mixed leukocytes; [3]): 88%
Labeling Yield (mixed leukocytes; [4]): 88%
Labeling Yield (mixed leukocytes; [5]): 86%
Labeling Yield (mixed leukocytes; [6]): 87%
Mononuclear leukocyte labeling yield (mononuclear leukocytes): 85%
percent injected dose per organ, abscess [1, 7]: 1.15%
131I/111In or 125I/111In in aspirate ([1]; Experiment 3): 2.6
% aspirate radioactivity cell bound ([1]; Experiment 3): 93%
abscess to contralateral knee ratio ([1]; Experiment 3, 3 hour): 3.7
abscess to surrounding tissue ratio ([1]; Experiment 3, 3 hour): 2.3
% inj. dose in abscess aspirate [1, 8]: 0.050%
131I/111In or 125I/111In in aspirate ([1]; Experiment 4): 3.5
% aspirate radioactivity cell bound ([1]; Experiment 4): 97%
abscess to contralateral knee ratio ([1]; Experiment 4, 48 hours): 9.1
abscess to surrounding tissue ratio ([1]; Experiment 4, 48 hours): 6.3
% inj. dose in abscess aspirate [1, 9]: 0.194%
131I/111In or 125I/111In in aspirate ([1]; Experiment 5): 4.3
% aspirate radioactivity cell bound ([1]; Experiment 5): 95%
% inj. dose in abscess aspirate [1, 10]: 0.092%
131I/111In or 125I/111In in aspirate ([1]; Experiment 6): 22
% aspirate radioactivity cell bound ([1]; Experiment 6): 94%
% inj. dose in abscess aspirate [1, 11]: 0.355%
lung sequestration of labeled leukocytes ([1]; dog, in vivo): No lung sequestration was observed
percent injected dose per organ, liver ([1]; dog, in vivo, 2880 min): 8.7%
localization of labeled leukocytes in induced inflammatory site/abscess, compared with 111In-oxine (111In-labeled) leukocytes ([1]; sodium urate induced abscess, dog): higher degree of localization

C/C(=N\[O-])[C@@H](C)[N-]CC(C)(C)C[N-][C@H](C)/C(C)=N/O.[O]=[99Tc+3] (racemic) [^99m Tc-HMPAO]
stability compared with the 111In radiopharmaceuticals ([2]; in vitro and in vivo): less stable both in vitro and in vivo
nonspecific biodistribution ([2]; labeled leukocytes, in vivo): diffuse abdominal radioactivity, gall bladder uptake
target to background ratios compared with cells labeled with 111In-oxine [2, 12]: lower target to background ratios
uptake in abscesses compared with cells labeled with 111In-oxine [2, 12]: lower absolute uptake in abscesses
renal excretion of unidentified polar species containing 99mTc, earliest time ([2]; printed as early as three hours post injection): three hours post injection

indium-111 complex of N-[methyl(2-(Di-4-ASP-propylthiourea)ethyl)carbamide]-trans-1,2-diaminocyclohexane-N,N',N'-triacetic acid [^111 In-19a]
Mixed leukocyte labeling yield, 111In complexes (mixed leukocytes; Diluent C): 4%

indium-111 complex of N-[methyl(2-(Di-6-ASP-acetamido)ethyl)carbamide]-trans-1,2-diaminocyclohexane-N,N',N'-triacetic acid [^111 In-18]
Mixed leukocyte labeling yield, 111In complexes (mixed leukocytes; Diluent C): 21%

[In+3].[O-]c1cccc2cccnc12.[O-]c1cccc2cccnc12.[O-]c1cccc2cccnc12 [^111 In-oxine, reference compound]
Labeling Yield (mixed leukocytes; Table 3 Experiment 1, 4b 250 Ci/mmol, Diluent C after 2 × 10 mL saline washes): 88%
Labeling Yield (mixed leukocytes; Table 3 Experiment 2, 4b footnotes a,c (250 / 1000 Ci/mmol)): 91%
Labeling Yield (mixed leukocytes; [3]): 85%
Labeling Yield (mixed leukocytes; [4]): 94%
Labeling Yield (mixed leukocytes; [5]): 89%
Labeling Yield (mixed leukocytes; [6]): 87%
abscess visibility in gamma camera images ([1]; 3 hours): the abscess was visible at 3 hours
percent injected dose per organ, liver [1, 7]: 13.1%
% aspirate radioactivity cell bound ([1]; Experiment 1): 95%
% inj. dose in abscess aspirate ([1]; Experiment 1, injected 84 μCi 125I-4b, 500 μCi 111In-oxine, Diluent C): 0.383%
% aspirate radioactivity cell bound ([1]; Experiment 2): 98%
% inj. dose in abscess aspirate ([1]; Experiment 2, injected 66 μCi 125I-4b, 312 μCi 111In-oxine): 0.088%
% aspirate radioactivity cell bound ([1]; Experiment 3): 79%
abscess to contralateral knee ratio ([1]; Experiment 3, 3 hour): 2.7
abscess to surrounding tissue ratio ([1]; Experiment 3, 3 hour): 2.0
% inj. dose in abscess aspirate [1, 8]: 0.019%
% aspirate radioactivity cell bound ([1]; Experiment 4): 88%
abscess to contralateral knee ratio ([1]; Experiment 4, 48 hours): 4.0
abscess to surrounding tissue ratio ([1]; Experiment 4, 48 hours): 2.6
% inj. dose in abscess aspirate [1, 9]: 0.056%
% aspirate radioactivity cell bound ([1]; Experiment 5): 92%
% inj. dose in abscess aspirate [1, 10]: 0.021%
131I/111In or 125I/111In in aspirate ([1]; Experiment 6): 22
% aspirate radioactivity cell bound ([1]; Experiment 6): 78%
% inj. dose in abscess aspirate [1, 11]: 0.016%
gamma camera images, comparison of 4b and 111In-oxine ([1]; between 1 hour and 3 hours): comparable
absolute inflammatory lesion uptake ([2]; compared with all agents yet tested): highest absolute inflammatory lesion uptake of all agents yet tested

CCCCCCCCN(CCCCCCCC)c1ccc(/C=C/c2cc[n+](C/C=C/[125I])cc2)cc1 [Compound 4c]
Mixed leukocyte labeling yield (mixed leukocytes; Diluent C): 52%
Mixed leukocyte labeling yield (mixed leukocytes; saline, 2 washes of pellet): 32%
Mixed leukocyte labeling yield (mixed leukocytes; saline, no washes of pellet): 6%
Leukocyte labeling (in words) (mixed leukocytes; five labeling procedures compared): only labeled leukocytes in useful yields using Diluent C
